# Assay results as given in US20050215548A1 (Cyclacel Limited, priority 2002, published 2005).
# Where two headings read alike, the source gives them in different places. Marks after values point to notes of the source that are not given here. Non-standard residues stand in square brackets, D forms with d. Residues, ends and D or L forms follow the SMILES beside them. Trp(6-Cl) = N[C@@H](Cc1c[nH]c2cc(Cl)ccc12)C(=O)O; Pmp = N[C@@H](Cc1ccc(CP(=O)(O)O)cc1)C(=O)O; Ac3c = NC1(C(=O)O)CC1; Aib = CC(C)(N)C(=O)O
# How the values were obtained:
# HDM2 = biological target: T1, HDM2 (Homo sapiens, UniProt Q00987); test: Fluorescence polarisation competitive HDM2 binding assay
# T1 construct: Recombinant HDM2 (1.5 μg per well) in TBS-BSA buffer
# Method: This was carried out using a 96-well microtiter plate (Costar) format. Recombinant HDM2 (1.5 μg per well) in TBS-BSA buffer (50 mM Tris pH 7.4, 150 mM NaCl, and 0.1% BSA) was incubated for 5 min at room temperature in the presence of serially diluted test compound (in TBS-BSA buffer with a final concentration of 5% DMSO). Fluorescently labelled p53-derived peptide (fluorescein-[…]NH2, 0.2 μM) was added to each well and the plate was incubated at room temperature for 45 min. The fluorescence polarisation (excitation 485 nm, emission 520 nm) of the peptide was measured. IC50 values were calculated from dose-response curves.
# (§1) The fluorescence polarisation competitive HDM2 binding assay described in Example 3 was used. Furthermore, the anti-proliferative potency of the compounds against three human tumour cell lines with different genetic make-up was also determined. […] The cell lines used were as follows: AGS, gastric adenocarcinoma, wild-type p53; H1299, large cell lung carcinoma, p53 null, low HDM2; SJSA-1, primitive multipotential bone sarcoma, wild-type p53, overexpressed HDM2.
# AGS = test: 72-h MTT cytotoxicity assay, AGS; format: cell-based; conditions: Homo sapiens, 72-h MTT, Table 1, read-out: IC50 Anti-proliferative effect on cell line AGS
# Method: as §1
# (§2) Representative bisarylsulfonamide compounds were tested on a panel of transformed and non-transformed human cell lines, using a standard 72-h MTT cytotoxicity assay [Haselsberger K et al, ibid].
# H1299 = test: 72-h MTT cytotoxicity assay, H1299; format: cell-based; conditions: Homo sapiens, NCI-H1299; 72-h MTT; Table 1; read-out: IC50 Anti-proliferative effect on cell line H 1299
# Method: as §1, §2
# SJSA-1 = test: 72-h MTT cytotoxicity assay, SJSA-1; format: cell-based; conditions: Homo sapiens, SJSA-1; 72-h MTT; Table 1; read-out: IC50 Anti-proliferative effect on cell line SJSA-1
# Method: as §1, §2
# p53 = p53 reporter gene assay (U2OS-derived luciferase reporter cell line); conditions: for Fold induction of luciferase activity: compared to basal luciferase activity, 16-h time point, at concentration of maximal induction; for Concentration (test compound concentration at which the p53 induction was maximal): p53 reporter, U2OS-derived cell line
# [1] = fluorescence polarisation format, Table 1, read-out: IC50 In vitro competitive HDM2 binding assay
# [2] = fluorescence polarisation assay, Table 3, read-out: In vitro competitive HDM2 binding assay IC50
# T1 sequence (Q00987 whole entry): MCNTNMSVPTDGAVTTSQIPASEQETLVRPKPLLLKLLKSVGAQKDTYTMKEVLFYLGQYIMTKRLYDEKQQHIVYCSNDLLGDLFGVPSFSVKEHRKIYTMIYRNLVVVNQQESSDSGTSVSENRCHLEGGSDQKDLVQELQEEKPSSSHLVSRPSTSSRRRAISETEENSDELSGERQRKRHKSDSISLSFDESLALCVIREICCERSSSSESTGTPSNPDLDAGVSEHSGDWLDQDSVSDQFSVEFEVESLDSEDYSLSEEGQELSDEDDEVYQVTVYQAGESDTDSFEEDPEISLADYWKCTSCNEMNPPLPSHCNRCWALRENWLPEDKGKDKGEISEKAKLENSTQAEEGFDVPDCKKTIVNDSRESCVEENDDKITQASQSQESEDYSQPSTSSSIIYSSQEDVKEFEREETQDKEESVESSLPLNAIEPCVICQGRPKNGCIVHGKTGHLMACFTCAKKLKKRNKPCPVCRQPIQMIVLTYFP
IC50 (HDM2; [1]),Fold induction of luciferase activity (p53),IC50 (HDM2; [2]),SMILES,IC50 (AGS),IC50 (H1299),IC50 (SJSA-1),Concentration (test compound concentration at which the p53 induction was maximal) (p53),"IC50 (HDM2; In vitro competitive HDM2 binding assay IC50, fluorescence polarisation assay, Table 3)"
151 ± 26 µM,–,–,"COc1ccc(S(=O)(=O)Nc2cc(C(F)(F)F)cc(C(F)(F)F)c2)cc1Cl [Compound 104, N-(3,5-Bis-trifluoromethyl-phenyl)-3-chloro-4-methoxy-benzene-sulfonamide]",25 µM,–,–,–,–
> 167 µM,–,–,"Cc1sc(S(=O)(=O)Nc2ccc(Cl)cc2)cc1[N+](=O)[O-] [Compound 73, 5-Methyl-4-nitro-thiophene-2-sulfonic acid (4-chloro-phenyl)-amide]",53 µM,66 µM,–,–,–
25.4 ± 0.2 µM,–,–,"O=[N+]([O-])c1cc(S(=O)(=O)Nc2cc(C(F)(F)F)cc(C(F)(F)F)c2)sc1Cl [Compound 44, 5-Chloro-4-nitrothiophene-2-sulfonic acid (3,5-bis-trifluoromethyl-phenyl)-amide]",10 µM,14 ± 2 µM,19 ± 3 µM,–,–
3.5 ± 10 µM,–,–,"O=[N+]([O-])c1cc(S(=O)(=O)N(Cc2ccc(C(F)(F)F)cc2)Cc2cccc(C(F)(F)F)c2)sc1Cl [Compound 75, 5-Chloro-4-nitro-thiophene-2-sulfonic acid (3-trifluoro-methyl-benzyl)-(4-trifluoromethyl-benzyl)-amide]",9 µM,16 µM,18 µM,–,–
278 ± 50 µM,–,–,"O=S(=O)(Nc1cc(C(F)(F)F)cc(C(F)(F)F)c1)c1cnc(Cl)c(Br)c1 [Compound 42, 5-Bromo-6-chloropyridine-3-sulfonic acid (3,5-bis-trifluoromethylphenyl)amide]",30 ± 7 µM,32 ± 7 µM,65 ± 18 µM,–,–
134 ± 28 µM,–,–,"O=S(=O)(Nc1cc(C(F)(F)F)cc(C(F)(F)F)c1)c1c(Cl)cccc1Cl [Compound 128, N-(3,5-Bis-trifluoromethyl-phenyl)-2,6-dichloro-benzenesulfonamide]",53 µM,–,–,–,–
24.8 ± 5.4 µM,–,–,"O=[N+]([O-])c1cc(S(=O)(=O)NCc2ccc(Cl)cc2)sc1Cl [Compound 56, 5-Chloro-4-nitro-thiophene-2-sulfonic acid 4-chloro-benzylamide]",4.3 ± 0.6 µM,6.3 ± 1.9 µM,9.3 ± 2.7 µM,–,–
192 ± 8 µM,–,–,"O=[N+]([O-])c1cc(S(=O)(=O)Nc2ccc(C(F)(F)F)cc2)ccc1Cl [Compound 35, 4-Chloro-3-nitro-N-(4-trifluoromethylphenyl)benzenesulfonamide]",13 ± 3.3 µM,9.3 ± 1.7 µM,26.5 ± 1.6 µM,–,–
8.5 ± 3.2 µM,–,–,"O=[N+]([O-])c1cc(S(=O)(=O)N(Cc2cccc(C(F)(F)F)c2)c2ccc(Cl)cc2)sc1Cl [Compound 67, 5-Chloro-4-nitro-thiophene-2-sulfonic acid (4-chloro-phenyl)-(3-trifluoromethyl-benzyl)-amide]",6.7 ± 0.9 µM,12 ± 1 µM,11.8 ± 1.6 µM,–,–
234 ± 37 µM,–,–,"O=[N+]([O-])c1cc(S(=O)(=O)Nc2cc(Cl)cc(Cl)c2)ccc1Cl [Compound 47, 4-Chloro-N-(3,5-dichlorophenyl)-3-nitro-benzenesulfonamide]",23 ± 2 µM,18 ± 8 µM,37 ± 6 µM,–,–
16.2 µM,–,–,"CC(=O)Sc1sc(S(=O)(=O)Nc2ccc(Cl)cc2)cc1[N+](=O)[O-] [Compound 72, Thioacetic acid S-[5-(4-chloro-phenylsulfamoyl)-3-nitro-thiophen-2-yl] ester]",61 µM,–,–,–,–
378 µM,<2 fold,378 µM,"O=S(=O)(Nc1ccc(F)cc1)c1cc(Br)c(Cl)s1 [Compound 4, 4-Bromo-5-chlorothiophene-2-sulfonic acid (4-fluorophenyl)amide]",–,–,–,100^e μM,–
5.9 ± 0.7 µM,–,–,"CN(c1ccc(Cl)cc1)S(=O)(=O)c1cc([N+](=O)[O-])c(Cl)s1 [Compound 51, 5-Chloro-4-nitrothiophene-2-sulfonic acid (4-chloro-phenyl)-methylamide]",11.3 ± 1 µM,17.4 ± 3.8 µM,15.6 µM,–,–

# The remaining lines, values behind:
SMILES,IC50 (HDM2; [1]),Fold induction of luciferase activity (p53),IC50 (HDM2; [2]),IC50 (AGS),IC50 (H1299),IC50 (SJSA-1),Concentration (test compound concentration at which the p53 induction was maximal) (p53),"IC50 (HDM2; In vitro competitive HDM2 binding assay IC50, fluorescence polarisation assay, Table 3)"
"Cn1ncc(-c2ccc(S(=O)(=O)Nc3cc(C(F)(F)F)cc(C(F)(F)F)c3)s2)c1C(F)(F)F [Compound 43, 5-(1-Methyl-5-trifluoromethyl-1H-pyrazol-4-yl)-thiophene-2-sulfonic acid (3,5-bis-trifluoromethylphenyl)amide]",133 ± 11 µM,–,–,20.9 ± 1 µM,18 ± 0.8 µM,33.7 ± 0.3 µM,–,–
"O=[N+]([O-])c1cc(S(=O)(=O)NCCc2c[nH]c3ccc(Cl)cc23)ccc1Cl [Compound 81, 4-Chloro-N-[2-(5-chloro-1H-indol-3-yl)-ethyl]-3-nitro-benzenesulfonamide]",311 ± 21 µM,–,–,29 ± 2 µM,39 ± 6 µM,51 ± 1 µM,–,–
"COc1ccc(NS(=O)(=O)c2cc([N+](=O)[O-])c(Cl)s2)c(C)c1 [Compound 129, 5-Chloro-4-nitro-thiophene-2-sulfonic acid (4-methoxy-2-methyl-phenyl)-amide]",278 ± 19 µM,5 fold,278 ± 19 µM,–,–,–,100 µM,–
"Cc1ccc(S(=O)(=O)NCCc2c[nH]c3ccc(Cl)cc23)cc1[N+](=O)[O-] [Compound 82, N-[2-(5-Chloro-1H-indol-3-yl)-ethyl]-4-methyl-3-nitro-benzenesulfonamide]",338 ± 111 µM,–,–,50 µM,49 µM,65 ± 4 µM,–,–
"CN(Cc1ccc(C(F)(F)F)cc1)S(=O)(=O)c1cc([N+](=O)[O-])c(Cl)s1 [Compound 52, 5-Chloro-4-nitrothiophene-2-sulfonic acid methyl-(4-trifluoromethylbenzyl)amide]",10.7 ± 0.2 µM,–,–,23.3 ± 1.4 µM,28.5 ± 1.9 µM,27.5 ± 1.3 µM,–,–
"O=[N+]([O-])c1ccc(NS(=O)(=O)c2cc(C(F)(F)F)cc(C(F)(F)F)c2)cc1Cl [Compound 105, N-(3-Chloro-4-nitro-phenyl)-3,5-bis-trifluoromethyl-benzenesulfonamide]",153 ± 18 µM,–,–,24 ± 3 µM,25 ± 1 µM,37 ± 18 µM,–,–
"CSCC[C@H](NC(=O)[C@@H](N)Cc1ccccc1)C(=O)NC(C)(C)C(=O)N[C@@H](Cc1ccc(CP(=O)(O)O)cc1)C(=O)N[C@@H](Cc1c[nH]c2cc(Cl)ccc12)C(=O)N[C@@H](CCC(=O)O)C(=O)NC1(C(=O)N[C@@H](CC(C)C)C(N)=O)CC1 [Control, H-Phe-Met-Aib-Pmp-(6-Cl-Trp)-Glu-Ac3c-Leu-NH2, reference compound] (H-FM[Aib][Pmp][Trp(6-Cl)]E[Ac3c]L-NH2)",–,4 fold,–,–,–,–,150 to 200 µM,0.19 µM
"O=S(=O)(Nc1ccc(C(F)(F)F)cc1)c1cc(S(=O)(=O)Nc2ccc(C(F)(F)F)cc2)c(Cl)s1 [Compound 33, 5-Chlorothiophene-2,4-disulfonic acid bis-[(4-trifluoro-methyl-phenyl)-amide]]",65 ± 5 µM,–,–,68 ± 1 µM,69 ± 1 µM,> 100 µM,–,–
"O=S(=O)(Nc1ccc(Cl)cc1)c1ccc(S(=O)(=O)c2ccccc2)s1 [Compound 24, 5-Benzenesulfonylthiophene-2-sulfonic acid (4-chlorophenyl)amide]",243 ± 59 µM,–,–,–,–,–,–,–
